Measured values from article PMC5971337, “Development of an Ultra-High Performance Liquid Chromatography Method for Simultaneous Determination of Six Active Compounds in Fructus aurantii and Rat Plasma and Its Application to a Comparative Pharmacokinetic Study in Rats Administered with Different Doses” (Journal of Analytical Methods in Chemistry, 2018).
Like-named read-outs stand apart in the source and are kept apart here.

What was measured:
[1] = Stability of QC samples in rat plasma (short-term, freeze-thaw, long-term); assay type: in vitro ADME; conditions: for Short-term stability, Mean ± SD: room temperature for 4 h; for Freeze-thaw stability, Mean ± SD: three freeze (−20°C) and thaw cycles; for Long-term stability, Mean ± SD: −20°C for 20 days
Experimental: (§1) Standard stock solutions were prepared by dissolving reference standards in methanol to yield concentrations of 198 µg/mL for meranzin hydrate, 128 µg/mL for naringenin, 273 µg/mL for hesperetin, and 4.56 µg/mL for SMZ. All solutions were stored at 4°C. QC samples were prepared at three concentration levels containing meranzin hydrate (6.5, 206, 3300 ng/mL), naringenin (13.9, 222, 3555 ng/mL), and hesperetin (3.7, 29.5, 236 ng/mL). Plasmas (100 µL) were spiked with β-glucuronidase (5 µL) and acetic acid buffer solution (10 µL), subsequently vortexed for 10 seconds, and incubated for 4 h at 37°C. Then, SMZ (50 µL) and methanol (135 µL) were added, ultrasound was done for 10 min, and centrifugation at 12000 rpm (4°C) for 10 min was performed. The supernatant (50 µL) was transferred, distilled water (50 µL) was added, then ultrasound and centrifugation again. At last, the supernatant of 5 µL was injected into UPLC.
(5) Stability. QC plasma samples of each concentration at low, medium, and high levels were detected. The freeze and thaw stability were investigated after three freeze (−20°C) and thaw (room temperature) cycles on consecutive days. Long-term stability was studied by storing QC samples at −20°C for 20 days. Short-term stability was assessed by analyzing QC samples kept at room temperature for 4 h.

[2] = Stability of the analytical solution of FA decoction at environmental temperature; assay type: physicochemical; conditions: FA decoction 1.7 g/mL
Experimental: The raw herb (200 g) was immersed in distilled water (1 : 8, w/v) for 0.5 h at room temperature and thereafter was boiled for 0.5 h. The filtrate was collected, and the residue was boiled again in distilled water (1 : 6, w/v) for 0.5 h. The filtrates were mixed together, filtered through a 0.45 µm porous filtration membrane, then farther concentrated in the rotary evaporator to a final concentration equivalent to 1.7 g/mL FA, and stored at −20°C until analyzed. In the experiment, FA decoction (100 µL) was precisely measured, 900 µL methanol was added, then ultrasound was done for 5 min, and it was centrifuged at 15000 rpm (4°C) for 10 min; the supernatant liquor (20 µL) was shifted to a 1.5 mL EP tube, methanol-water (780 µL) was added, and ultrasound was performed, and it was centrifuged at 15000 rpm (4°C) for 10 min again. Finally, 5 µL of the supernatant liquor was injected into the apparatus for detection.
The stability of the analytical solution at environmental temperature was studied by detecting sample solution at 0, 2, 4, 8, 12, and 24 h. The RSD values of peak areas were taken for assessment.

[3] = Pharmacokinetic study in rats after oral administration of FA decoction; assay type: in vivo, Sprague-Dawley rats; conditions: for AUC(0-t) / Cmax / Tmax / MRT last / half-life: male, Sprague-Dawley, rat plasma, n=8; for AUC(0-t): last dose day 8, plasma treated with β-glucuronidase; for MRT last: read-out: MRT(0–t); for half-life: read-out: t 1/2z (converted)
Experimental: 16 male Sprague-Dawley (SD) rats weighing 200 ± 20 g were from experimental animal center of Central South University and fostered in an environmentally controlled room (temperature: 22–26°C, humidity: 40–60%, and 12 h dark-light cycle) for 1 week before the experiment. All experimental procedures were implemented strictly according to the guidelines of the Animal Care and Use Committee, Central South University, China. This research was approved by the Animal Ethics Committee of Central South University. Rats were randomly divided into 2 groups (n=8): low-dose group (15 g/kg FA decoction) and high-dose group (30 g/kg FA decoction). The two groups were given by gavage twice a day for 7 days in succession. At the 7th day of medication, the rats were prohibited feeding for about 12 hours without restriction of water. On day 8, the rats were orally administered for the last time at 8 am, and then plasma samples (0.5 mL) were collected from the caudal vein at 5, 10, 20, 30, 60, 90, 240, 360, 480, and 600 min into heparinized vacuum tubes, followed by centrifugation at 3500 rpm (4°C) for 10 min. Then, the plasmas were obtained and immediately stored at −20°C until analysis. During the experiment, the rats were injected intraperitoneally with physiological saline for maintaining fluid balance.
as §1
The database was set up with the SPSS 17.0 software package from SPSS Inc., Chicago, Illinois (US). Differences between the two groups were analyzed by one-way analysis of variance. A two-tailed P value of <0.05 was considered statistically significant. The DAS 3.2.8 pharmacokinetic program (Chinese Pharmacological Society) was used to process pharmacokinetic parameters.
The validated method was applied to determine the plasma concentrations of meranzin hydrate, naringenin, and hesperetin in rats after oral administration of FA decoction at a dose of 15 g/kg and 30 g/kg body weight. The mean plasma concentration-time profiles of meranzin hydrate, naringenin, and hesperetin are shown in Figure 4, and the estimated pharmacokinetic parameters are illustrated in Table 5. According to DAS software, the optimal metabolism process of the 3 components in rats could be depicted as a two-compartment pharmacokinetic model.

[4] = high level (spiked 3300.0 / 3555.0 / 236.0 ng/mL)
[5] = low level (spiked 6.5 / 13.9 / 3.7 ng/mL)
[6] = medium level (spiked 206.0 / 222.0 / 29.5 ng/mL)

Structure (SMILES): O=C1C[C@@H](c2ccc(O)cc2)Oc2cc(O)cc(O)c21 [Naringenin, naringenin]
- Short-term stability, Mean ± SD [1, 4]: 3549.93 ± 455.39 ng/mL
- Freeze-thaw stability, Mean ± SD [1, 4]: 3552.68 ± 409.74 ng/mL
- Long-term stability, Mean ± SD [1, 4]: 3550.10 ± 450.62 ng/mL
- Short-term stability, Mean ± SD [1, 5]: 13.03 ± 2.28 ng/mL
- Freeze-thaw stability, Mean ± SD [1, 5]: 13.44 ± 4.79 ng/mL
- Long-term stability, Mean ± SD [1, 5]: 13.32 ± 5.05 ng/mL
- Short-term stability, Mean ± SD [1, 6]: 217.05 ± 22.66 ng/mL
- Freeze-thaw stability, Mean ± SD [1, 6]: 219.51 ± 35.50 ng/mL
- Long-term stability, Mean ± SD [1, 6]: 220.06 ± 34.22 ng/mL
- Stability in FA decoction, Content ([2]; 0h): 0.27 mg/mL
- Stability in FA decoction, Content ([2]; 2h): 0.26 mg/mL
- Stability in FA decoction, Content ([2]; 4h): 0.26 mg/mL
- Stability in FA decoction, Content ([2]; 8h): 0.26 mg/mL
- Stability in FA decoction, Content ([2]; 12h): 0.26 mg/mL
- Stability in FA decoction, Content ([2]; 24h): 0.25 mg/mL
- AUC(0-t) ([3]; oral FA decoction 15 g/kg twice a day for 7 days): 3660 ± 861 ng·h/mL
- Cmax ([3]; oral FA decoction 15 g/kg): 694 ± 208 ng/mL
- Tmax ([3]; oral FA decoction 15 g/kg): 1.13 ± 0.35 h
- MRT last ([3]; oral FA decoction 15 g/kg): 4.06 ± 0.33 h
- half-life ([3]; oral FA decoction 15 g/kg): 8.59 ± 9.25 h
- AUC(0-t) ([3]; oral FA decoction 30 g/kg twice a day for 7 days): 11200 ± 1410 ng·h/mL
- Cmax ([3]; oral FA decoction 30 g/kg): 2580 ± 388 ng/mL
- Tmax ([3]; oral FA decoction 30 g/kg): 0.81 ± 0.26 h
- MRT last ([3]; oral FA decoction 30 g/kg): 3.89 ± 0.21 h
- half-life ([3]; oral FA decoction 30 g/kg): 5.67 ± 2.9 h
- AUC(0–t) elevation, 30 g/kg compared with the 15 g/kg group ([3]; rat, oral FA decoction): 3.05 fold
- C max elevation, 30 g/kg compared with the 15 g/kg group ([3]; rat, oral FA decoction): 3.72 fold
